The test system of experiment [1] is INS-1E cells. Type of experiment: cell-based, rat. Conditions: assay number 9; 0.1 mM glucose.
The test system of experiment [2] is INS-1E cells. The experiment in a line: cells. The following applies: assay number 8; 5 mM glucose. Type of experiment: cell-based, rat.
For the next experiment, the system named is DLD-1. The experiment in a line: cells. The following applies: assay number 23. Type of experiment: cell-based.
In experiment [3] the test system is alkaline phosphatase (ALP) activity in C2C12 cells. Type of experiment: cell-based. Conditions: assay number 6; concentration response.
A further experiment addresses T1, hFLT3 (Homo sapiens, UniProt P36888).
T1 construct: purchased Cerep (LANCE kinase assay platform, contract assay)
The experiment in a line: Cerep LANCE kinase assay hFLT3 (S1 assay 35). Type of experiment: biochemical. Conditions: assay number 35. (TR-FRET usually uses a lanthanide donor and a delayed reading to cut background.)

The next experiment relates to HT-29. The experiment in a line: cells. Type of experiment: cell-based. The following applies: assay number 28.
The test system of another experiment is SNU-C1. The experiment in a line: cells. The following applies: assay number 30. Type of experiment: cell-based.
The next experiment deals with HeLa cells. The experiment in a line: cells. Type of experiment: cell-based. Conditions: for Hela CellCycMod PI 2N IC50/EC50: assay number 14; for Hela CellCycMod PI 4N IC50/EC50: assay number 16; for Hela CellCycMod PI MI IC50/EC50: assay number 17; for Hela CellCycMod PI Cell Number IC50/EC50: assay number 18.
The subject of experiment [4] is HCT116 cells treated with a GSK3β inhibitor. The experiment in a line: cells. Type of experiment: cell-based. The following applies: assay number 26; GSK3b inhibitor pretreated.
For another experiment, the system named is HCT116. The experiment in a line: cells. Conditions: assay number 25; basal. Type of experiment: cell-based.
In a further experiment the target is T2, hGSK3b (Homo sapiens, UniProt P49841).
T2 construct: purchased Cerep (LANCE kinase assay platform, contract assay)
T2 sequence (P49841 whole entry): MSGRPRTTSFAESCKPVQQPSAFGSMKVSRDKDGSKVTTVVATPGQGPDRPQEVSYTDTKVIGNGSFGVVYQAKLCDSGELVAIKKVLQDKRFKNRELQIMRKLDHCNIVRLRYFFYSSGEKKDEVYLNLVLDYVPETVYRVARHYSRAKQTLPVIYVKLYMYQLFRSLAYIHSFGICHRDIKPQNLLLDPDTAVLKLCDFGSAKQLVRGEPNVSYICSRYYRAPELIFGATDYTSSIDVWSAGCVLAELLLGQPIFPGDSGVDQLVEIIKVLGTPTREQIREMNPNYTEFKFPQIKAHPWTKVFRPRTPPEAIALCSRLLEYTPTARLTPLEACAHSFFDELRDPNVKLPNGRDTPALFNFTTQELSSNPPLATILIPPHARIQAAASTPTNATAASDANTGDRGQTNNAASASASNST
The experiment in a line: Cerep LANCE kinase assay hGSK3b (S1 assay 34). Type of experiment: biochemical. The following applies: assay number 34.

The test system of experiment [5] is endothelial tube formation in co-cultures of ECFCs and ADSCs treated with VEGF. The experiment in a line: cells. Type of experiment: cell-based, human.
The target of another experiment is T3, hp70S6K1 (RPS6KB1) (Homo sapiens, UniProt P23443).
T3 construct: purchased Cerep (LANCE kinase assay platform, contract assay)
T3 sequence (P23443 whole entry): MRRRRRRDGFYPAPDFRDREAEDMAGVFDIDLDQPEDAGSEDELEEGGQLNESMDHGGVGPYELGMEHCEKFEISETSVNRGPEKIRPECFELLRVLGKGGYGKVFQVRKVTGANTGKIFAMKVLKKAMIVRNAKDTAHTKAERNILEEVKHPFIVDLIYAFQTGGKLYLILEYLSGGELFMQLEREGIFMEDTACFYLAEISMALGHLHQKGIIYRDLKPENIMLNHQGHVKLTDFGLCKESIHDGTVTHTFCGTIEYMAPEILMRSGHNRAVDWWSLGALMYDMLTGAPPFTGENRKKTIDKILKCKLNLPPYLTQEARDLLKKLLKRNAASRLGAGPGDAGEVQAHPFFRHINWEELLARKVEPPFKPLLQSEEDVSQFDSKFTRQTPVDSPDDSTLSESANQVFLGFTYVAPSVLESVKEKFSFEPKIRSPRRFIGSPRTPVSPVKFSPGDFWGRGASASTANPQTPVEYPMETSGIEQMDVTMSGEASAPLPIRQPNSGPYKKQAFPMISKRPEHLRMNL
The experiment in a line: Cerep LANCE kinase assay hp70S6K1 (S1 assay 31). Type of experiment: biochemical. The following applies: assay number 31.

The subject of experiment [6] is ECFC/ADSC co-culture cell nuclei number.
The next experiment has as its system Colo320. The experiment in a line: cells. Type of experiment: cell-based. Conditions: assay number 27.
A further experiment deals with NCI-H716 cells. The experiment in a line: cells. Type of experiment: cell-based, Human. Conditions: assay number 12.
Experiment [7] concerns nuclear β-catenin in C2C12 cells. The experiment in a line: cells. Conditions: assay number 5; concentration response. Type of experiment: cell-based.
The target of the next experiment is T4, hKDR (Homo sapiens, UniProt P35968).
T4 construct: purchased Cerep (LANCE kinase assay platform, contract assay)
T4 sequence (P35968 20-1356): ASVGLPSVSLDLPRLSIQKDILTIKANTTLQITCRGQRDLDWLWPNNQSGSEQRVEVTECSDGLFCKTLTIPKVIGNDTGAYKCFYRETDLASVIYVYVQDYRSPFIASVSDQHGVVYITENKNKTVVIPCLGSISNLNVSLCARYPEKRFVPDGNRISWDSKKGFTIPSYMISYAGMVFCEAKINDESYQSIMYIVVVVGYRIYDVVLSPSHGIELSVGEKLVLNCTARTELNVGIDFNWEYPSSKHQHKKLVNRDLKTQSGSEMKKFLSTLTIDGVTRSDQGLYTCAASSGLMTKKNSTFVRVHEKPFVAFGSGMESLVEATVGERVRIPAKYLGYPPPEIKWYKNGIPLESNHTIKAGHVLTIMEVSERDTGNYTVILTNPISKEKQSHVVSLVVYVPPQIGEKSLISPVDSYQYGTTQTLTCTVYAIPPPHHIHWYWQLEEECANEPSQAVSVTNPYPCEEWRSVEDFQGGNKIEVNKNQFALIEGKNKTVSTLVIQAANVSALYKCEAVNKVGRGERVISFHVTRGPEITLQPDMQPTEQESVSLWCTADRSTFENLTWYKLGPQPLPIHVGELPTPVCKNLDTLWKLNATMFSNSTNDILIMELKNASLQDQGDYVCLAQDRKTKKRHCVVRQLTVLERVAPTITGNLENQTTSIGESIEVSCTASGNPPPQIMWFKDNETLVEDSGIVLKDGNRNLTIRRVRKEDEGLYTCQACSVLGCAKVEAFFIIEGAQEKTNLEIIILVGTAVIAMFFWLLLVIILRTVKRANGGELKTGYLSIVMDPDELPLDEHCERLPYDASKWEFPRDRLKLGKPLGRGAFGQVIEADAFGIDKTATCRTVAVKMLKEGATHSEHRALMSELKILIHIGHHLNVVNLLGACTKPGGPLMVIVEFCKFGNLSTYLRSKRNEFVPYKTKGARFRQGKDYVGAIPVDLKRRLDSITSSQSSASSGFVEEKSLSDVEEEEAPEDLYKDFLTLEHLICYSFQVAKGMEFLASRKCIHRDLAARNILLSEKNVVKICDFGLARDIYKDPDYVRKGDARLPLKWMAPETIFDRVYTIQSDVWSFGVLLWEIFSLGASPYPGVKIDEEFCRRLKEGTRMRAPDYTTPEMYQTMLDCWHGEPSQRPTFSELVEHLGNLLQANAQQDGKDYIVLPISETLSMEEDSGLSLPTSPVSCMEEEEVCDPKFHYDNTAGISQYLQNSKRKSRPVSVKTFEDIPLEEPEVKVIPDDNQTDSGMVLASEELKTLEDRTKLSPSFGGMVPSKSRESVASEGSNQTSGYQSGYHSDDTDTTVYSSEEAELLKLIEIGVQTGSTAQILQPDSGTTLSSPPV
The experiment in a line: Cerep LANCE kinase assay hKDR (S1 assay 32). Type of experiment: biochemical. The following applies: assay number 32.

The next experiment has as its system STC-1 cell line. Type of experiment: cell-based, mouse. Conditions: assay number 13.
Another experiment has as its target T5, hJAK2 (Homo sapiens, UniProt O60674).
T5 construct: purchased Cerep (LANCE kinase assay platform, contract assay)
The experiment in a line: Cerep LANCE kinase assay hJAK2 (S1 assay 33). Type of experiment: biochemical. The following applies: assay number 33.

The subject of a further experiment is RKO. The experiment in a line: cells. Conditions: assay number 29. Type of experiment: cell-based.
In the next experiment the test system is SW480. The experiment in a line: cells. Type of experiment: cell-based. Conditions: assay number 24.
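Wherever 5mMGluc INS1E SecretionMod IC50/EC50 is given: secreted insulin quantified by homogeneous immunoassay.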

T1 sequence (P36888 27-993): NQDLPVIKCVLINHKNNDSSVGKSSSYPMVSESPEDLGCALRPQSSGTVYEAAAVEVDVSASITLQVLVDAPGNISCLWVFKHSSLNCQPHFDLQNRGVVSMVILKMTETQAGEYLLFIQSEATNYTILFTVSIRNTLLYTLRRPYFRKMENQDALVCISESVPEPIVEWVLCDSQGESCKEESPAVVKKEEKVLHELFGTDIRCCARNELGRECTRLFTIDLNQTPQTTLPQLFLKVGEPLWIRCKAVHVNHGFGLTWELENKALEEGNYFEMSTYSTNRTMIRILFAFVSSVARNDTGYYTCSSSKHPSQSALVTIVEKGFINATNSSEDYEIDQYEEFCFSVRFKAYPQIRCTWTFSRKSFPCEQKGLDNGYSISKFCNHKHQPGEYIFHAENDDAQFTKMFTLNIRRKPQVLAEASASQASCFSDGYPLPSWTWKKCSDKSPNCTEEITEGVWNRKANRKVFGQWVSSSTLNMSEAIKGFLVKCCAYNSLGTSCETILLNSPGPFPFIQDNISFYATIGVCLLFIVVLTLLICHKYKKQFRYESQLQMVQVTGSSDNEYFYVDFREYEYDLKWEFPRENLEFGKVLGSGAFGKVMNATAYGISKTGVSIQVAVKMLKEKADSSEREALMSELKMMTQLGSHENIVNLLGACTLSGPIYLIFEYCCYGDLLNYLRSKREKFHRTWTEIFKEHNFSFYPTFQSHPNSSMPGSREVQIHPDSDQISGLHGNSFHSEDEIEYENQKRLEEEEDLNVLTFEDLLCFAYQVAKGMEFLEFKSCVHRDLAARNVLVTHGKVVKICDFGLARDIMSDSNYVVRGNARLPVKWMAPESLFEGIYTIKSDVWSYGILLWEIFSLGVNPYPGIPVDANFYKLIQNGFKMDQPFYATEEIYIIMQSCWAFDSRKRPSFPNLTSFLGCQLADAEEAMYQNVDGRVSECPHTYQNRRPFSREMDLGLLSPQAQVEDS
T5 sequence (O60674 whole entry): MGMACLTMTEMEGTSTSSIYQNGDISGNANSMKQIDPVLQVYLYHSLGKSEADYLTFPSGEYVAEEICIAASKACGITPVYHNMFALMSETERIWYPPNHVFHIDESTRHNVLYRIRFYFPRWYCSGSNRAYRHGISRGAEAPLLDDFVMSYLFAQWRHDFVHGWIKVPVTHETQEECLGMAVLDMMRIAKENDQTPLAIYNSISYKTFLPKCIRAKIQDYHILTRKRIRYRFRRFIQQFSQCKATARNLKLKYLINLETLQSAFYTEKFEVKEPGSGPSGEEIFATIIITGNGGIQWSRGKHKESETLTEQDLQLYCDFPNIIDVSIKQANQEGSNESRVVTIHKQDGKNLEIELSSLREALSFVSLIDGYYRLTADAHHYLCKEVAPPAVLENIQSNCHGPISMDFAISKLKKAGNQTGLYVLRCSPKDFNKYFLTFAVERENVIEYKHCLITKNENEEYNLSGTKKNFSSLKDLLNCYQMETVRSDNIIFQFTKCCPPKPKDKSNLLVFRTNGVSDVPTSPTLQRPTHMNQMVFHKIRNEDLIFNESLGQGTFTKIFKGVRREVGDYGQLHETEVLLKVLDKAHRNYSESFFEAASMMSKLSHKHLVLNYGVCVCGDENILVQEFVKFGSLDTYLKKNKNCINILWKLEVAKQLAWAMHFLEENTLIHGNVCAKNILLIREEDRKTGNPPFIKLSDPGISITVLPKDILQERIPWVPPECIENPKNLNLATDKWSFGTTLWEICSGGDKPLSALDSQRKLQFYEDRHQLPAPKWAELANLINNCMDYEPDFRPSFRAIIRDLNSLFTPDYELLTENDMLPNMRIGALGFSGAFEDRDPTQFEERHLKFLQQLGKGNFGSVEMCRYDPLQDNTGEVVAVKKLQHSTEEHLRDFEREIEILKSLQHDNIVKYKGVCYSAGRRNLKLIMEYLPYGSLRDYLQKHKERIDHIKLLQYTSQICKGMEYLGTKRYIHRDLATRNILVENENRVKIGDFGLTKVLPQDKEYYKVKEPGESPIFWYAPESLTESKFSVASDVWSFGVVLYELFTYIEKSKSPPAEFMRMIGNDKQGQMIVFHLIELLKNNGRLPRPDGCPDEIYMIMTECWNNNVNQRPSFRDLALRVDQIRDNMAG

As for `CCOc1cc(CC(=O)N[C@@H](CC(C)C)c2ccccc2N2CCCCC2)ccc1C(=O)O` [NCGC00016978-04], in the experiment with INS-1E cells [1], the “0.1mMGluc_INS1E SecretionMod Act IC50/EC50” value was 0.1358 µM. In the experiment on INS-1E cells [2], the “5mMGluc_INS1E SecretionMod IC50/EC50” value stood at 0.02704 µM.
Regarding `CN1CCc2cc(Cl)c(O)cc2[C@H]2c3ccccc3CC[C@@H]21` [NCGC00092362-02], in the experiment on INS-1E cells [1], the “0.1mMGluc_INS1E SecretionMod Act IC50/EC50” value is more than 33.33 µM. The “5mMGluc_INS1E SecretionMod IC50/EC50” value with INS-1E cells [2] was determined as 15.3649 µM.
For `CCN(CC)CCNC(C(=O)OCCC(C)C)c1ccccc1` (centres unmarked) [NCGC00164526-02], in that order: more than 33.33 µM and 24.7717 µM.
In the case of `C#CCOC(C(=O)OCCN(C)C)(c1ccccc1)c1ccccc1` [NCGC00164558-02], in the experiment on INS-1E cells [1], the “0.1mMGluc_INS1E SecretionMod Act IC50/EC50” value is 9.666 µM. In addition, the “5mMGluc_INS1E SecretionMod IC50/EC50” value in the experiment on INS-1E cells [2] worked out at 9.257 µM.
Turning to `Cl.NCC1CCC(C(=O)Oc2ccc(CCC(=O)O)cc2)CC1` (centres unmarked) [NCGC00164584-03], the “0.1mMGluc_INS1E SecretionMod Act IC50/EC50” value in the experiment on INS-1E cells [1] was more than 33.33 µM. Also, the “5mMGluc_INS1E SecretionMod IC50/EC50” value in the experiment with INS-1E cells [2] is listed as more than 33.33 µM.
With `CCCCCCCCCCCCCC[N+](C)(C)C.[Br-]` [NCGC00166121-03], the “Basal_Viability ATP DLD-1 IC50/EC50” value with DLD-1 is listed as 0.4746 µM. In addition, the “WntCondMedia_Alk Phos C2C12 IC50/EC50” value in experiment [3] is more than 20 µM. Also, at hFLT3, the “hFLT3 LANCE IC50/EC50” value is recorded as more than 20 µM. In addition, the “Basal_Viability ATP HT-29 IC50/EC50” value with HT-29 worked out at 1.32 µM. Besides, the “Basal_Viability ATP SNU-C1 IC50/EC50” value in the experiment on SNU-C1 came out at 0.00517 µM. For the same molecule, in the experiment with HeLa cells, the “Hela CellCycMod PI 2N IC50/EC50” value is listed as more than 10 µM, the “Hela CellCycMod PI 4N IC50/EC50” value is on record as more than 10 µM, the “Hela CellCycMod PI MI IC50/EC50” value is listed as more than 10 µM and the “Hela CellCycMod PI Cell Number IC50/EC50” value stood at 3.3211 µM. The “Hela CellCycMod PI S Phase IC50/EC50” value in the experiment on HeLa cells (assay number 15, S phase) is given as more than 10 µM. In experiment [4], the “GSK3b inh pretreated_Viability ATP HCT116 IC50/EC50” value turned out to be 0.754 µM. In addition, the “Basal_Viability ATP HCT116 IC50/EC50” value in the experiment with HCT116 is listed as 2.287 µM. Further, the “hGSK3b LANCE IC50/EC50” value on hGSK3b is reported as more than 20 µM. Moreover, the “VEGF_ADSC\ECFC Angio CD31 TubeArea IC50/EC50” value in [5] is 1.9016 µM. Also, the “hp70S6K1 LANCE IC50/EC50” value on hp70S6K1 (RPS6KB1) is on record as more than 20 µM. Further, the “VEGF_ADSC\ECFC Angio Hoechst NucArea IC50/EC50” value in [6] was determined as 6.684 µM. In addition, in the experiment on Colo320, the “Basal_Viability ATP Colo 320 IC50/EC50” value came out at 2.516 µM. Besides, in the experiment with NCI-H716 cells, the “hNCI-H716 GLP1 Secretion IC50/EC50” value was found to be 18.5931 µM. Also, in experiment [7], the “WntCondMedia_bCatenin C2C12 IC50/EC50” value is given as more than 20 µM. The “hKDR LANCE IC50/EC50” value on hKDR is more than 20 µM. For the same molecule, the “mSTC-1 GLP1 Secretion IC50/EC50” value with STC-1 cell line is on record as more than 40 µM. In addition, at hJAK2, the “hJAK2 LANCE IC50/EC50” value was more than 20 µM. Moreover, the “Basal_Viability ATP RKO IC50/EC50” value with RKO worked out at 0.1473 µM. Further, in the experiment with SW480, the “Basal_Viability ATP SW480 IC50/EC50” value is reported as 0.9328 µM.
With `CN(C)CCOC(c1ccc(Cl)cc1)c1ccccn1` (centres unmarked) [NCGC00166141-06], the “0.1mMGluc_INS1E SecretionMod Act IC50/EC50” value with INS-1E cells [1] is reported as more than 33.33 µM. Also, the “5mMGluc_INS1E SecretionMod IC50/EC50” value in the experiment with INS-1E cells [2] is recorded as 21.3759 µM.
On to `Cc1ccc([N+](=O)[O-])[c]2c1[O][Hg]2` [NCGC00249897-01], for which the “Basal_Viability ATP DLD-1 IC50/EC50” value in the experiment on DLD-1 (basal) worked out at 1.6221 µM. For the same molecule, the “WntCondMedia_Alk Phos C2C12 IC50/EC50” value in [3] stood at 0.1552 µM. The “hFLT3 LANCE IC50/EC50” value on hFLT3 came to 10.38 µM. In addition, the “Basal_Viability ATP HT-29 IC50/EC50” value in the experiment with HT-29 (basal) turned out to be 1.4429 µM. The “Basal_Viability ATP SNU-C1 IC50/EC50” value in the experiment on SNU-C1 (basal) is reported as 0.2022 µM. In addition, in the experiment on HeLa cells, the “Hela CellCycMod PI 2N IC50/EC50” value is more than 10 µM, the “Hela CellCycMod PI 4N IC50/EC50” value is reported as more than 10 µM, the “Hela CellCycMod PI MI IC50/EC50” value was 1.2179 µM and the “Hela CellCycMod PI Cell Number IC50/EC50” value is on record as 0.3851 µM. The “GSK3b inh pretreated_Viability ATP HCT116 IC50/EC50” value in experiment [4] is more than 2.2222 µM. Moreover, in the experiment on HCT116, the “Basal_Viability ATP HCT116 IC50/EC50” value is given as 2.8299 µM. The “hGSK3b LANCE IC50/EC50” value on hGSK3b came out at 8.37 µM. The “VEGF_ADSC\ECFC Angio CD31 TubeArea IC50/EC50” value in experiment [5] is reported as 0.6678 µM. Also, the “hp70S6K1 LANCE IC50/EC50” value on hp70S6K1 (RPS6KB1) is given as more than 20 µM. For the same molecule, the “VEGF_ADSC\ECFC Angio Hoechst NucArea IC50/EC50” value in [6] came out at 1.087 µM. The “Basal_Viability ATP Colo 320 IC50/EC50” value in the experiment on Colo320 (basal) came out at 0.935 µM. Besides, the “hNCI-H716 GLP1 Secretion IC50/EC50” value in the experiment on NCI-H716 cells came to 9.871 µM. Moreover, in [7], the “WntCondMedia_bCatenin C2C12 IC50/EC50” value is 1.5133 µM. Also, in the experiment on INS-1E cells [2], the “5mMGluc_INS1E SecretionMod IC50/EC50” value is more than 33.33 µM. Moreover, the “hKDR LANCE IC50/EC50” value on hKDR turned out to be 16.8 µM. In addition, the “mSTC-1 GLP1 Secretion IC50/EC50” value in the experiment on STC-1 cell line is reported as 0.0972 µM. The “hJAK2 LANCE IC50/EC50” value at hJAK2 is reported as more than 20 µM. Moreover, in the experiment with SW480 (basal), the “Basal_Viability ATP SW480 IC50/EC50” value came to 1.1294 µM.

Values taken from PMC4503722, “Novel Phenotypic Outcomes Identified for a Public Collection of Approved Drugs from a Publicly Accessible Panel of Assays” (PLoS ONE, 2015).
